Test results: ChEMBL document CHEMBL3046469, “Fungicidal Activities of 2-(Substituted Phenoxymethyl)phenyl-2-methoxyiminoacaetamide Derivatives” (1998)

Experiments:
Format in all cases: functional
[1] = system: Pyricularia oryzae; assay: Fungicidal activity against Magnaporthe oryzae assessed as rice blast disease control at 125 ppm foliar application for 24 hr after inoculation at 27 +/- 2 degC measured after 5 days by curative manner
[2] = system: Botrytis cinerea; assay: Fungicidal activity against Botryotinia fuckeliana assessed as cucumber gray mold disease control at 7.8 ppm foliar application […] at 22 +/- 2 degC by curative manner
[3] = system: Podosphaera fuliginea; assay: Fungicidal activity against Podosphaera fuliginea assessed as cucumber powdery mildew control at 7.8 ppm foliar application 24 hr after inoculation at 23 +/- 2 degC by curative manner
[4] = system: Blumeria graminis f. sp. tritici; assay: Fungicidal activity against Blumeria graminis f. sp. tritici assessed as wheat powdery mildew disease control at 7.8 ppm foliar application 48 hr after inoculation by curative manner
[5] = system: Blumeria graminis f. sp. tritici; assay: Fungicidal activity against Blumeria graminis f. sp. tritici assessed as wheat powdery mildew disease control at 2 ppm foliar application for 48 hr before inoculation by preventive manner
[6] = system: Podosphaera fuliginea; assay: Fungicidal activity against Podosphaera fuliginea assessed as cucumber powdery mildew control at 7.8 ppm foliar application 24 hr before inoculation at 23 +/- 2 degC by preventive manner
[7] = system: Botrytis cinerea; assay: Fungicidal activity against Botryotinia fuckeliana assessed as cucumber gray mold disease control at 7.8 ppm foliar application […] at 22 +/- 2 degC by preventive manner
[8] = system: Pyricularia oryzae; assay: Fungicidal activity against Magnaporthe oryzae assessed as rice blast disease control at 31.3 ppm foliar application for 24 hr before inoculation at 27 +/- 2 degC measured after 5 days by preventive manner
[9] = system: Podosphaera fuliginea; assay: Fungicidal activity against Podosphaera fuliginea assessed as cucumber powdery mildew control at 2 ppm foliar application 24 hr after inoculation at 23 +/- 2 degC by curative manner
[10] = system: Botrytis cinerea; assay: Fungicidal activity against Botryotinia fuckeliana assessed as cucumber gray mold disease control at 2 ppm foliar application […] at 22 +/- 2 degC by curative manner
[11] = system: Pyricularia oryzae; assay: Fungicidal activity against Magnaporthe oryzae assessed as rice blast disease control at 7.8 ppm foliar application for 24 hr after inoculation at 27 +/- 2 degC measured after 5 days by curative manner
[12] = system: Pseudoperonospora cubensis; assay: Fungicidal activity against Pseudoperonospora cubensis assessed as cucumber downy mildew disease control at 2 ppm foliar application 24 hr before inoculation onto the adaxial(treated) surface of leaf by preventive manner
[13] = system: Thanatephorus cucumeris; assay: Fungicidal activity against Thanatephorus cucumeris assessed as rice sheath blight disease control at 125 ppm foliar application for 24 hr before inoculation at 26 +/- 2 degC measured after 5 days by preventive manner
[14] = system: Blumeria graminis f. sp. tritici; assay: Fungicidal activity against Blumeria graminis f. sp. tritici assessed as wheat powdery mildew disease control at 2 ppm foliar application for 48 hr after inoculation by curative manner
[15] = system: Podosphaera fuliginea; assay: Fungicidal activity against Podosphaera fuliginea assessed as cucumber powdery mildew control at 2 ppm foliar application 24 hr before inoculation at 23 +/- 2 degC by preventive manner
[16] = system: Pseudoperonospora cubensis; assay: Fungicidal activity against Pseudoperonospora cubensis assessed as cucumber downy mildew disease control at 7.8 ppm foliar application 24 hr before inoculation onto the abaxial(untreated) surface of leaf by preventive manner
[17] = system: Pyricularia oryzae; assay: Fungicidal activity against Magnaporthe oryzae assessed as rice blast disease control at 7.8 ppm foliar application for 24 hr before inoculation at 27 +/- 2 degC measured after 5 days by preventive manner
[18] = system: Pseudoperonospora cubensis; assay: Fungicidal activity against Pseudoperonospora cubensis assessed as cucumber downy mildew disease control at 31.3 ppm foliar application 24 hr before inoculation onto the abaxial(untreated) surface of leaf by preventive manner
[19] = system: Pseudoperonospora cubensis; assay: Fungicidal activity against Pseudoperonospora cubensis assessed as cucumber downy mildew disease control at 7.8 ppm foliar application 24 hr before inoculation onto the adaxial(treated) surface of leaf by preventive manner
[20] = system: Thanatephorus cucumeris; assay: Fungicidal activity against Thanatephorus cucumeris assessed as rice sheath blight disease control at 7.8 ppm foliar application for 24 hr before inoculation at 26 +/- 2 degC measured after 5 days by preventive manner
[21] = system: Pyricularia oryzae; assay: Fungicidal activity against Magnaporthe oryzae assessed as rice blast disease control at 2 ppm foliar application for 24 hr before inoculation at 27 +/- 2 degC measured after 5 days by preventive manner
[22] = system: Pyricularia oryzae; assay: Fungicidal activity against Magnaporthe oryzae assessed as rice blast disease control at 2 ppm foliar application for 24 hr after inoculation at 27 +/- 2 degC measured after 5 days by curative manner
[23] = system: Blumeria graminis f. sp. tritici; assay: Fungicidal activity against Blumeria graminis f. sp. tritici assessed as wheat powdery mildew disease control at 7.8 ppm foliar application 48 24 hr before inoculation by preventive manner
[24] = system: Pyricularia oryzae; assay: Fungicidal activity against Magnaporthe oryzae assessed as rice blast disease control at 31.3 ppm foliar application for 24 hr after inoculation at 27 +/- 2 degC measured after 5 days by curative manner
[25] = system: Podosphaera fuliginea; assay: Fungicidal activity against Podosphaera fuliginea assessed as cucumber powdery mildew control at 31.3 ppm foliar application 24 hr before inoculation at 23 +/- 2 degC by preventive manner
[26] = system: Podosphaera fuliginea; assay: Fungicidal activity against Podosphaera fuliginea assessed as cucumber powdery mildew control at 31.3 ppm foliar application 24 hr after inoculation at 23 +/- 2 degC by curative manner
[27] = system: Botrytis cinerea; assay: Fungicidal activity against Botryotinia fuckeliana assessed as cucumber gray mold disease control at 31.3 ppm foliar application […] at 22 +/- 2 degC by preventive manner
[28] = system: Blumeria graminis f. sp. tritici; assay: Fungicidal activity against Blumeria graminis f. sp. tritici assessed as wheat powdery mildew disease control at 31.3 ppm foliar application for 48 hr after inoculation by curative manner
[29] = system: Pseudoperonospora cubensis; assay: Fungicidal activity against Pseudoperonospora cubensis assessed as cucumber downy mildew disease control at 2 ppm foliar application 24 hr before inoculation onto the abaxial(untreated) surface of leaf by preventive manner
[30] = system: Thanatephorus cucumeris; assay: Fungicidal activity against Thanatephorus cucumeris assessed as rice sheath blight disease control at 31.3 ppm foliar application for 24 hr before inoculation at 26 +/- 2 degC measured after 5 days by preventive manner
[31] = system: Pseudoperonospora cubensis; assay: Fungicidal activity against Pseudoperonospora cubensis assessed as cucumber downy mildew disease control at 125 ppm foliar application 24 hr before inoculation onto the abaxial(untreated) surface of leaf by preventive manner

SMILES	Activity [2] [%]	Activity [3] [%]	Activity [4] [%]	Activity [5] [%]	Activity [7] [%]	Activity [8] [%]	Activity [9] [%]	Activity [11] [%]	Activity [12] [%]	Activity [13] [%]	Activity [15] [%]	further results
CNC(=O)/C(=N\OC)c1ccccc1COc1cc(C)ccc1C	90	90	90	90	90	90						Activity [1]: 90%; Activity [6]: 90%
CNC(=O)/C(=N/OC)c1ccccc1COc1ccc(Cl)cc1				90	90	90	90	90	90	<90	90	Activity [10]: 90%; Activity [14]: 90%; Activity [16]: 90%
CNC(=O)/C(=N/OC)c1ccccc1COc1cccc(OC(C)C)c1	90	90	90	90	90			90		90		Activity [17]: 90%; Activity [18]: 90%; Activity [19]: 90%; Activity [6]: 90%
CNC(=O)/C(=N/OC)c1ccccc1COc1cc(C)ccc1C				90	90		90		90		90	Activity [10]: 90%; Activity [20]: 90%; Activity [21]: 90%; Activity [14]: 90%; Activity [22]: 90%; Activity [16]: 90%
CNC(=O)/C(=N/OC)c1ccccc1COc1ccccc1	90					90				90		Activity [23]: 90%; Activity [18]: 90%; Activity [24]: 90%; Activity [25]: 90%; Activity [19]: 90%; Activity [26]: 90%; Activity [27]: 90%; Activity [28]: 90%
CO/N=C(/C(N)=O)c1ccccc1COc1cc(C)ccc1C	90	90				90		90			90	Activity [27]: 90%
CNC(=O)/C(=N/OC)c1ccccc1COc1cc(Cl)ccc1Cl				90	90	90			90		90	Activity [29]: 90%; Activity [30]: 90%
CNC(=O)/C(=N/OC)c1ccccc1COc1ccc(-c2ccccc2)cc1	90		90	90	90		90		90		90	Activity [31]: 90%; Activity [21]: 90%; Activity [30]: 90%; Activity [22]: 90%
